Values after ≈ are worked out from the molar mass of the structure shown.

The test system of experiment [1] is Helicobacter pylori NCTC 11637. The experiment in a line: In vitro antimicrobial test (agar dilution method). Type of experiment: cell-based. The note with it: Brucella agar with 7% horse blood, 37° C., 4 days. On the technique in general: In agar dilution, organisms are placed on agar that contains the substance at set levels.
For the next experiment, the system named is H. pylori CPY 433. The experiment in a line: In vitro antimicrobial test (agar dilution method). Type of experiment: cell-based, Helicobacter pylori. The conditions noted are these: Brucella agar with 7% horse blood.
A further experiment deals with H. pylori TN 2. Description: In vitro antimicrobial test (agar dilution method). The format is cell-based, Helicobacter pylori. The conditions noted are these: Brucella agar with 7% horse blood.
In a further experiment the test system is H. pylori TN 58. Description: In vitro antimicrobial test (agar dilution method). Type of experiment: cell-based, Helicobacter pylori. The note with it: Brucella agar with 7% horse blood.
The subject of experiment [2] is Alcaligenes faecalis IFO 13111. The experiment in a line: In vitro antimicrobial test (agar dilution method). Type of experiment: cell-based. The note with it: Brucella agar with 7% horse blood, 37° C., 4 days. As for the experimental part: (§1) Using 5 strains of Helicobacter pylori, 19 other bacterial species and 2 yeast species as test strains, the antimicrobial activities of various compounds were determined by the method described below (agar dilution method). The test compound was dissolved in dimethyl sulfoxide; this solution was 2-fold diluted step by step with sterilized distilled water to yield test samples. Two milliliters of each test sample was mixed with 18 ml of Brucella agar supplemented with 7% horse blood as a medium to prepare a determination plate. Helicobacter pylori was subjected to shaking culture at 37° C. in a gas pack jar incorporating CampyPak™ (BBL^R Beckton Dickinson Microbiology Systems) for 20 hours, using Brucella broth medium supplemented with 2.5% fetal bovine serum, to yield a seed inoculum. The other test microorganisms were each cultured at 37° C. for 20 hours, using Brucella broth medium, to yield respective seed inocula.
(§2) Five microliters of each seed inoculum, previously adjusted to about 10^6 CFU/ml using Brucella broth medium supplemented with 2.5% fetal bovine serum was inoculated to each determination plate, and cultured at 37° C. in a gas pack jar incorporating CampyPak™ and water-soaked cotton absorbent for 4 days. After cultivation, strain growth was macroscopically examined; the minimum concentration for the absence of strain growth was taken as the MIC value (minimum inhibitory concentration) of the test compound.

The subject of another experiment is Bacillus cereus IFO 3514. Description: In vitro antimicrobial test (agar dilution method). The format is cell-based. The conditions noted are these: Brucella agar with 7% horse blood, 37° C., 4 days. As for the experimental part: as §1, §2
Experiment [3] concerns Bacillus megaterium IFO 12108. The experiment in a line: In vitro antimicrobial test (agar dilution method). The format is cell-based. The note with it: Brucella agar with 7% horse blood, 37° C., 4 days. As for the experimental part:
as §1, §2

Experiment [4] deals with Bacillus pumilus IFO 3813. The experiment in a line: In vitro antimicrobial test (agar dilution method). The format is cell-based. The note with it: Brucella agar with 7% horse blood, 37° C., 4 days. As for the experimental part: as §1, §2
The test system of experiment [5] is Bacillus subtilis PCI 219. The experiment in a line: In vitro antimicrobial test (agar dilution method). The format is cell-based. The conditions noted are these: Brucella agar with 7% horse blood, 37° C., 4 days. As for the experimental part: as §1, §2
In experiment [6] the test system is Candida albicans IFO 0583. The experiment in a line: In vitro antimicrobial test (agar dilution method). The format is cell-based. The conditions noted are these: Brucella agar with 7% horse blood, 37° C., 4 days. As for the experimental part:
as §1, §2

Experiment [7] relates to Citrobater freundii IFO 12681. Description: In vitro antimicrobial test (agar dilution method). The note with it: Brucella agar with 7% horse blood, 37° C., 4 days. The format is cell-based. As for the experimental part:
as §1, §2

For the next experiment, the system named is Escherichia coli K12. Description: In vitro antimicrobial test (agar dilution method). The format is cell-based. The note with it: Brucella agar with 7% horse blood, 37° C., 4 days. As for the experimental part: as §1, §2
The subject of experiment [8] is Escherichia coli NIHJ JC-2. Description: In vitro antimicrobial test (agar dilution method). Type of experiment: cell-based. The note with it: Brucella agar with 7% horse blood, 37° C., 4 days. As for the experimental part:
as §1, §2

Experiment [9] relates to Klebsiella pneumoniae IFO 3317. Description: In vitro antimicrobial test (agar dilution method). The format is cell-based. The conditions noted are these: Brucella agar with 7% horse blood, 37° C., 4 days. As for the experimental part:
as §1, §2

The test system of experiment [10] is Micrococcus flavus IFO 3242. Description: In vitro antimicrobial test (agar dilution method). Type of experiment: cell-based. The conditions noted are these: Brucella agar with 7% horse blood, 37° C., 4 days. As for the experimental part: as §1, §2
Experiment [11] concerns Micrococcus luteus IFO 12708. The experiment in a line: In vitro antimicrobial test (agar dilution method). Type of experiment: cell-based. The note with it: Brucella agar with 7% horse blood, 37° C., 4 days. As for the experimental part: as §1, §2
In experiment [12] the test system is Proteus mirabilis ATCC 21100. The experiment in a line: In vitro antimicrobial test (agar dilution method). Type of experiment: cell-based. The conditions noted are these: Brucella agar with 7% horse blood, 37° C., 4 days. As for the experimental part:
as §1, §2

The subject of experiment [13] is Proteus morganii IFO 3168. The experiment in a line: In vitro antimicrobial test (agar dilution method). The format is cell-based. The note with it: Brucella agar with 7% horse blood, 37° C., 4 days. As for the experimental part:
as §1, §2

Experiment [14] deals with Proteus vulgaris IFO 3045. Description: In vitro antimicrobial test (agar dilution method). Type of experiment: cell-based. The conditions noted are these: Brucella agar with 7% horse blood, 37° C., 4 days. As for the experimental part: as §1, §2
In experiment [15] the test system is Pseudomonas aeruginosa IFO 3080. The experiment in a line: In vitro antimicrobial test (agar dilution method). The conditions noted are these: Brucella agar with 7% horse blood, 37° C., 4 days. Type of experiment: cell-based. As for the experimental part: as §1, §2
Experiment [16] has as its system Saccharomyces cerevisiae IFO 0209. Description: In vitro antimicrobial test (agar dilution method). The format is cell-based. The conditions noted are these: Brucella agar with 7% horse blood, 37° C., 4 days. As for the experimental part:
as §1, §2

For experiment [17], the system named is Salmonella enteritidis IFO 3313. The experiment in a line: In vitro antimicrobial test (agar dilution method). Type of experiment: cell-based. The conditions noted are these: Brucella agar with 7% horse blood, 37° C., 4 days. As for the experimental part:
as §1, §2

In experiment [18] the test system is Salmonella typhimurium IFO 12529. The experiment in a line: In vitro antimicrobial test (agar dilution method). The format is cell-based. The note with it: Brucella agar with 7% horse blood, 37° C., 4 days. As for the experimental part:
as §1, §2

Experiment [19] concerns Serratia marcescens IFO 3046. The experiment in a line: In vitro antimicrobial test (agar dilution method). Type of experiment: cell-based. The note with it: Brucella agar with 7% horse blood, 37° C., 4 days. As for the experimental part:
as §1, §2

For experiment [20], the system named is Staphylococcus aureus FDA 209P. Description: In vitro antimicrobial test (agar dilution method). Type of experiment: cell-based. The conditions noted are these: Brucella agar with 7% horse blood, 37° C., 4 days. As for the experimental part:
as §1, §2

The next experiment has as its system H. pylori NCTC 11916. Description: In vitro antimicrobial test (agar dilution method). The format is cell-based, Helicobacter pylori. The note with it: Brucella agar with 7% horse blood. As for the experimental part:
as §1
Five microliters of each seed inoculum, previously adjusted to about 10^6 CFU/ml using Brucella broth medium supplemented with 2.5% fetal bovine serum was inoculated to each determination plate, and cultured at 37° C. in a gas pack jar incorporating CampyPak™ and water-soaked cotton absorbent for 4 days. […]

The subject of experiment [21] is Helicobacter pylori TN2GF4. Description: In vivo antimicrobial activity test in infected mongolian gerbils. The conditions noted are these: for Clearance Rate: mongolian gerbils infected with H. pylori TN2GF4; for Bacterial Detection: mean±standard deviation. As for the experimental part: After mongolian gerbils (MGS/Sea, male, 6 weeks of age) were fasted for 24 hours, Helicobacter pylori TN2GF4 was inoculated to the stomach at 10^7.08 per mongolian gerbil. Starting at 11 days after infection, a 3, 10, 30, or 100 mg/kg suspension of the test compound in a 0.5% aqueous solution of methyl cellulose was orally administered twice daily (morning and evening) for 3 days. On the day after final administration, the stomach of each infected mongolian gerbil was excised and disrupted; a series of 10-fold dilutions of the stomach homogenate were each inoculated to modified Skirrow's medium supplemented with activated charcoal and cultured under microaerophilic conditions at 37° C. for 4 days, after which clearance effect was assessed on the basis of the presence or absence of bacterial growth. Bacterial cell counts are expressed in mean±standard deviation after Dunnett's test against the control group.
In Table 4, ** indicates p<0.01.

Setting [22] is: 3 mg/kg orally twice daily for 3 days.

Broadly, the MIC is the lowest concentration found to suppress growth. Low values mean greater potency, high ones weaker potency. Regarding `C[C@H](c1c[nH]c2ccccc12)[C@@H]1OC(N(C)C(=O)OCc2ccccc2)=NC1=O` [Example 2, (5S)-2-(N-Benzyloxycarbonyl-N-methyl)amino-5[(1R)-1-(indol-3-yl)ethyl]-2-oxazolin-4-one], the MIC in [1] came to 0.025 µg/mL (≈ 0.0639 µM); against H. pylori CPY 433, 0.05 µg/mL (≈ 0.128 µM); in the experiment with H. pylori TN 2 it was 0.025 µg/mL (≈ 0.0639 µM); in the experiment with H. pylori TN 58, 0.05 µg/mL (≈ 0.128 µM).
Take `CN=C1NC(=O)[C@H]([C@H](C)c2c[nH]c3ccccc23)O1` [Indolmycin, indolmycin]: the MIC (in experiment [2]; in the experiment with Bacillus cereus IFO 3514; in [3]; in [4]; in [5]; in experiment [6]) was >100 µg/mL each time. Further, the MIC in [7] was >100 µg/mL; in the experiment with Escherichia coli K12, >100 µg/mL; in experiment [8], >100 µg/mL; in [9], >100 µg/mL; in experiment [10] it was >100 µg/mL; in [11] it was 12.5 µg/mL (≈ 48.6 µM). Also, the MIC in experiment [12], in experiment [13], in [14], in experiment [15], in experiment [16] and in [17] was >100 µg/mL in each case. Also, the MIC is >100 µg/mL in experiment [18]; >100 µg/mL in experiment [19]; >100 µg/mL in experiment [20]; 0.006 µg/mL (≈ 0.0233 µM) in [1]; 0.013 µg/mL (≈ 0.0505 µM) in the experiment on H. pylori NCTC 11916; 0.013 µg/mL (≈ 0.0505 µM) against H. pylori CPY 433. Also, the figures for the MIC in the experiment with H. pylori TN 2 and with H. pylori TN 58 were 0.006 µg/mL (≈ 0.0233 µM) and 0.025 µg/mL (≈ 0.0972 µM), respectively. Also, the “Clearance Rate” value was 0/5 (0) % in experiment [21] (setting [22]); 0/5 (0) % in experiment [21] (10 mg/kg orally twice daily for 3 days); 1/4 (25) % in experiment [21] (30 mg/kg orally twice daily for 3 days); 25% in experiment [21] (30 mg/kg orally twice daily for 3 days, listed as indolmycin); 4/5 (80) % in [21] (100 mg/kg orally twice daily for 3 days); 80% in experiment [21] (100 mg/kg orally twice daily for 3 days, listed as indolmycin). Also, the “Bacterial Detection” value in experiment [21] (setting [22]) was 4.61 ± 1.84 log CFU/gastric wall; in [21] (10 mg/kg orally twice daily for 3 days, ** p<0.01 vs control), 2.76 ± 1.04** log CFU/gastric wall; in experiment [21] (30 mg/kg orally twice daily for 3 days, ** p<0.01 vs control), 1.96 ± 0.78** log CFU/gastric wall; in experiment [21] (100 mg/kg orally twice daily for 3 days, ** p<0.01 vs control) it was 1.48 ± 0.00** log CFU/gastric wall. In addition, the “gastric bacterial cell count (in words)” value in experiment [21] (10 mg/kg or higher, mongolian gerbil) is “reduced the mongolian gerbil gastric bacterial cell count with dose dependency”.

These data come from patent publication US6414003B1, “Oxazolone derivatives and their use as anti-helicobacter pylori agents” (Takeda Chemical Industries, Ltd., priority 1996, dated 2002).
